Test [1] concerns GH3 cells stably expressing HER2CA. Put plainly: Soft agarose colony-forming assay, HER2CA transfectants. In kind it is cell-based, rat. The following applies: for suppression of colony formation in soft agar: Her2CA-GH3 cells. How it is done: B. GH3 cells stably expressing HER2CA or pcDNA3 were plated (4,000 per well) in 96 well plates for the indicated times, and WST assay performed. C. […] Values are mean±SEM. *p<0.05, ** p<0.01, ^‡p<0.05 vs pcDNA3 control, ^†p<0.05 vs HER2CA control, ^‡‡p<0.05 vs pcDNA3 control, ^††p<0.05 vs HER2CA control.
Base layers consisting of growth medium containing 0.6% low-melting point agarose (Invitrogen) were poured onto 6-well plates and allowed to solidify. Cells (8×10^3 per well) were plated in triplicate in top layers consisting of growth medium containing 0.3% agarose. Seven to ten days later, cells were stained with 0.2% iodonitrotetrazolium chloride (Invitrogen), and colonies composed of 50 cells were counted manually in 5 randomly selected fields.

Test [2] shares this test system. Kind of test: RIA of PRL and GH secretion in culture medium of GH3 stable transfectants. It counts as cell-based, rat. The following applies: HER2CA GH3 cells, 1 μM. How it is done: μM) for the indicated times, and Realtime PCR analysis performed. C. GH and PRL secretion in the culture medium determined by RIA. Hormone secretion levels were normalized for cell numbers, Values are mean±SEM. *p<0.05, **p<0.01.
GH3 rat lacto-somatotroph tumor cells secreting PRL and GH were purchased from the American Type Culture Collection. HER2CA cells were generated by transfection with pcDNA3-HER2CA (V654E) purchased from Addgene (Addgene plasmid 16259). Stable colonies were selected in the presence of 500 μg/ml G418 (Invitrogen). A vector control cell line pcDNA3 was simultaneously established by transfecting pcDNA3 that lacked inserted cDNA. After selection and propagation of stable transfectants, cells were cultured in DMEM/F12 medium containing 15% horse serum, 2.5% FBS, penicillin/streptomycin, and 500 μg/m G418. After synchronization by serum starvation (medium containing 0.2% bovine serum albumin for ˜24 h), cells with treatment agents was grown in fresh serum-depleted medium (0.2% bovine serum albumin), and samples collected at the indicated times.
RIAs for rat GH and PRL were performed in duplicate, using reagents provided by the National Hormone and Pituitary Program, National Institute of Diabetes and Digestive and Kidney Diseases (Harbor-UCLA Medical Center, Torrance, Calif., USA). Iodination of GH and PRL (5 μg) with iodine-125 (500 μCi) (PerkinElmer life & Analytical Sciences, Boston, Mass., USA) mixed with 0.1 mg Iodo-Gen (Pierce, Rockford, Ill.) was performed using 10-ml columns prepared by G-75 Sephadex (Sigma Chemical Co.). Low interspecies cross-reactivity of the GH and PRL assays were previously shown (8).

Test [3] has the same test system. Put plainly: Western blotting of cleaved caspase-3 (apoptosis). The conditions noted are these: 0.1-10 μM, 24 hr. (A western blot detects proteins with antibodies after separation by electrophoresis.)
Test [4] has as its system EGF-induced HER2 and MAPK autophosphorylation. Put plainly: Western blotting of EGF-induced ErbB signaling and intracellular PRL in HER2CA GH3 cells. In kind it is cell-based, rat.
Experimental: Proteins were separated on 4 to 12% NuPAGE Bis-Tris gels and electro-transferred for 3 h to polyvinylidene difluoride membranes (Invitrogen). Membranes were blocked for 1 h in 5% nonfat dry milk or 5% bovine serum albumin in TBS-T buffer, and incubated overnight with primary antibody. The following primary antibodies were used: anti-pErk1/2, anti-Erk1/2, anti-Akt, anti-pEGFR (Tyr1068), anti-EGFR, anti-pHER3/ErbB3 (Tyr1289), and anti-Cleaved Caspase-3 from Cell Signaling Technology, anti-pNeu (Tyr1248), anti-Neu (C-18), anti-HER3/ErbB3, anti-PRL, and anti-GAPDH from Santa Cruz Biotechnology, and anti-pAkt (Ser473) from Abcam. After washing with TBS-T, membranes were incubated with peroxidase-conjugated secondary antibody for 1 h (5% nonfat dry milk or 5% bovine serum albumin in TBS-T buffer).
For test [5], the system named is estrogen induced pituitary lactotroph tumor. Put plainly: Estrogen induced pituitary lactotroph tumor in Fischer-344 rats. It counts as in vivo, rat. The following applies: F344 rats. How it is done: 17β-estradiol-filled capsules or empty capsule were inoculated subcutaneously in F344 rats (4-5 weeks of age) for one month. A. Western blotting analysis was performed using collected pituitary or pituitary tumor. Next 17β-estradiol-filled capsules were inoculated subcutaneously in F344 rats (4-5 weeks of age) for 2 months. After capsule excision, oral vehicle or lapatinib was administered for 2 weeks. […] C. Tumor weights were measured after euthanasia. D. Serum PRL and GH levels were measured by RIA.
Next, 4-5 wk ovariectomized female Fishcer-344 rats (Harlan Sprague Dawley, Inc.) were s.c. implanted with an 17β-estradiol-filled […] brand capsule (Dow Corning Corp., Medical Grade Tubing Special; length, 3 cm; od, 0.125 in.; id, 0.062 in.) under isoflurane inhalational anesthesia. Two months thereafter, when serum PRL levels reached 3000 ng/ml, 17β-estradiol-filled capsules were extracted, and animals were treated with lapatinib (100 mg/kg) or vehicle (0.5% methylcellose, 0.5% tween80/PBS; 100 μl) via oral gavage twice a day for 2 weeks. 500 μl blood was collected for hormone assessment by retro-orbital bleeding under isoflurane inhalational anesthesia. On the last treatment day (day 14), rats were euthanized within 3 h of drug administration. Cardiac blood was collected and pituitary tumors excised and weighed. Fragments of each tumor were fixed in formalin and embedded in paraffin, preserved in RNA later solution, or frozen in liquid nitrogen.
Next, the inventors tested Fischer-344 rats treated with 17β-estradiol as a model for pituitary prolactinomas (24). […] The inventors then extracted the capsule, and initiated oral lapatinib or vehicle treatment for a subsequent 2 weeks.

The mark [6] stands for this setting: 100 mg/kg oral gavage twice a day for 2 weeks.

Entries after “also recorded” stand apart in the source; their conditions may differ.

For `COc1cc2ncnc(Nc3ccc(F)c(Cl)c3)c2cc1OCCCN1CCOCC1` [gefitinib], the “suppression of colony formation in soft agar” value in test [1] is given as about 50%. Besides, the “PRL secretion, time course of suppression” value in test [2] (24 and 48 h) is recorded as “suppressed PRL secretion only at 24 h”. Further, in test [3], the “induction of cleaved caspase-3” value is on record as “dose-dependently induced cleaved caspase3”.
For `CS(=O)(=O)CCNCc1ccc(-c2ccc3ncnc(Nc4ccc(OCc5cccc(F)c5)c(Cl)c4)c3c2)o1` [lapatinib, Lapatinib], in test [4] (Western blotting), the “intracellular PRL levels” value is given as “decreased”. Moreover, in test [4] (pretreated 0.1-10 μM 45 min, EGF 5 nM 10 min), the “attenuation of Her1/EGFR and Her2/Neu signaling (HER2 and MAPK autophosphorylation)” value was “attenuated EGF-induced HER2 and MAPK autophosphorylation more markedly than gefitinib; also recorded: blocked”. Besides, in test [5] (setting [6]), the “serum GH levels” value was “not altered” and the “suppression of serum PRL levels” value was about 35%. Also, the “suppression of tumor weight” value in test [5] (100 mg/kg oral gavage twice a day for 2 weeks after capsule extraction) is reported as about 35%. Moreover, the “pituitary tumor growth induced by estrogen” value in test [5] (oral treatment for 2 weeks) is given as “attenuated”. Further, the “colony formation in soft agar” value in test [1] (HER2CA GH3 cells, 0.1-10 μM every third day) is listed as “fewer HER2CA colonies”. In addition, the “suppression of colony formation in soft agar” value in test [1] was about 80%. The “suppression of PRL secretion” value in test [2] (24 h) is recorded as 40%. Moreover, the “suppression of PRL secretion” value in test [2] (48 h) was found to be 40%. Besides, in test [3], the “induction of cleaved caspase-3” value is reported as “dose-dependently induced cleaved caspase3; also recorded: induced cleaved-caspase 3”.
